Measured values as given in patent US3956068A, “Antibiotic G-52 and method for the production thereof” (Schering Corporation, priority 1975, dated 1976).
Counter-ions that a name gives are not always drawn.

Columns and labels:
[1] = test system: Staphylococcus aureus A.T.C.C. 6538P; test: Microbiological assay, standard disc plate assay; assay type: cell-based; details: against the standard antibiotic base (1000 mcg/mg)
Excerpt: 6538P as the test organism.

[2] = test system: Escherichia coli 11775; test: In vitro antibacterial activity, minimum inhibitory concentration; assay type: cell-based; details: Tryptose phosphate broth at pH 7.2
Excerpt: (§1) In vitro Antibacterial Activity
(§2) Minimum Inhibitory Concentration
(§3) Test Medium: Tryptose phosphate broth at pH 7.2.

[3] = test system: Escherichia coli 578; test: as above; assay type: cell-based; details: Tryptose phosphate broth at pH 7.2
Excerpt: as §1, §2, §3

[4] = test system: Klebsiella pneumoniae Ad 17 - kR; test: as above; assay type: cell-based; details: Tryptose phosphate broth at pH 7.2
Excerpt: as §1, §2, §3

[5] = test system: Proteus mirabilis 8019; test: as above; assay type: cell-based; details: Tryptose phosphate broth at pH 7.2
Excerpt: as §1, §2, §3

[6] = test system: Pseudomonas aeruginosa 130 - GR; test: as above; assay type: cell-based; details: Tryptose phosphate broth at pH 7.2
Excerpt: as §1, §2, §3

[7] = test system: Pseudomonas aeruginosa 236 - GR; test: as above; assay type: cell-based; details: Tryptose phosphate broth at pH 7.2
Excerpt: as §1, §2, §3

[8] = test system: Salmonella paratyphi 13311; test: as above; assay type: cell-based; details: Tryptose phosphate broth at pH 7.2
Excerpt: as §1, §2, §3

[9] = test system: Staphylococcus aureus 209P; test: as above; assay type: cell-based; details: Tryptose phosphate broth at pH 7.2
Excerpt: as §1, §2, §3

[10] = test system: Staphylococcus aureus 45; test: as above; assay type: cell-based; details: Tryptose phosphate broth at pH 7.2
Excerpt: as §1, §2, §3

[11] = test system: Streptococcus pyogenes C; test: as above; assay type: cell-based; details: Tryptose phosphate broth at pH 7.2
Excerpt: as §1, §2, §3

[12] = test system: Escherichia coli; test: In vivo protective activity in mice; design: species or system Mice (Carworth Farms CF-1); details: S.C., single dose of antibiotic (sulfate) 1 hour after intraperitoneal infection, survivors at 48 hours
Method: (§4) In vivo Activity of Antibiotic G-52 in Mice
(§5) ^a Mice (Carworth Farms CF-1 weighing about 18 - 20 grams) are treate
(§6) with a single dose of antibiotic (sulfate) one (1) hour after an
(§7) intraperitoneal infection with a lethal (10^7 organisms) quantity of
(§8) the infectious organism. The number of survivors are determined 48 hours
(§9) after infection and the data analyzed by standard probit procedures to
(§10) determine the PD50 values with 95% confidence limits.

[13] = test system: Pseudomonas aeruginosa; test: In vivo protective activity in mice; design: species or system Mice (Carworth Farms CF-1); details: S.C., single dose of antibiotic (sulfate) 1 hour after intraperitoneal infection, survivors at 48 hours
Method: as §4, §5, §6, §7, §8, §9, §10

[14] = test system: Staphylococcus aureus Gray; test: In vivo protective activity in mice; design: species or system Mice (Carworth Farms CF-1); details: S.C., single dose of antibiotic (sulfate) 1 hour after intraperitoneal infection, survivors at 48 hours
Method: as §4, §5, §6, §7, §8, §9, §10

[15] = test system: mice (CF-1); test: Acute toxicity in mice; assay type: in vivo; details: sulfate salt
Method: ^b The acute toxicity of Antibiotic G-52 in the form of the sulfate
salt is determined in the standard manner by administration of the
antibiotic to mice (CF-1) intravenously, subcutaneously and
intraperitoneally. The results are analyzed by standard probit procedures
to determine the LD50 values with 95% confidence limits.

[16] = Stability to boiling in buffer; assay type: physicochemical
Excerpt: Further, the antibiotic is stable to boiling for at least thirty (30) minutes in MacIlvaines buffer from pH 2 - 8 and in sodium hydroxide-boric acid buffer from pH 8 - 10.

[17] = Solubility

**Q.** Which results are given for `CNCC1=CCC(N)C(OC2C(N)CC(N)C(OC3OCC(C)(O)C(NC)C3O)C2O)O1` (centres unmarked) [Antibiotic G-52 sulfate]?
**A.** potency (microbiological assay) [1]: about 675 mcg/mg; potency (microbiological assay) ([1]; listed as Antibiotic G-52 Sulfate): 660 mcg/mg

**Q.** For `CNCC1=CC[C@@H](N)[C@@H](O[C@H]2[C@H](O)[C@@H](O[C@H]3OC[C@](C)(O)[C@H](NC)[C@H]3O)[C@H](N)C[C@@H]2N)O1` [Antibiotic G-52], which “Minimum Inhibitory Concentration (MIC)” value [2] is on record?
**A.** 3.0 mg/L

**Q.** What about the “Minimum Inhibitory Concentration (MIC)” value [3] of the same compound?
**A.** 7.5 mg/L

**Q.** And the “Minimum Inhibitory Concentration (MIC)” value [4]?
**A.** 0.8 mg/L

**Q.** And the “Minimum Inhibitory Concentration (MIC)” value [5]?
**A.** 7.5 mg/L

**Q.** What about the “Minimum Inhibitory Concentration (MIC)” value [6] of the same compound?
**A.** 25 mg/L

**Q.** And the “Minimum Inhibitory Concentration (MIC)” value [7]?
**A.** 25 mg/L

**Q.** And the “Minimum Inhibitory Concentration (MIC)” value [8]?
**A.** 17.5 mg/L

**Q.** And the “Minimum Inhibitory Concentration (MIC)” value [9]?
**A.** 0.3 mg/L

**Q.** And the “Minimum Inhibitory Concentration (MIC)” value [10]?
**A.** 0.8 mg/L

**Q.** And the “Minimum Inhibitory Concentration (MIC)” value [11]?
**A.** 25 mg/L

**Q.** What about the PD50 [12] of the same compound?
**A.** 2.5 mg/kg

**Q.** What about the PD50 [13] of the same compound?
**A.** 1.5 mg/kg

**Q.** What about the PD50 [14] of the same compound?
**A.** 2.5 mg/kg

**Q.** What about the LD50 ([15]; I.P.) of the same compound?
**A.** 200 mg/kg

**Q.** What about the LD50 ([15]; I.V.) of the same compound?
**A.** 50 mg/kg

**Q.** And the LD50 ([15]; S.C.)?
**A.** 400 mg/kg

**Q.** What about the “potency (microbiological assay)” value ([1]; listed as Antibiotic G-52 Base) of the same compound?
**A.** about 1000 mcg/mg

**Q.** And the stable to boiling ([16]; MacIlvaines buffer, pH 2 - 8)?
**A.** ≥ 30 min

**Q.** What about the stable to boiling ([16]; sodium hydroxide-boric acid buffer, pH 8 - 10) of the same compound?
**A.** ≥ 30 min

**Q.** What about the “solubility in polar organic solvents” value ([17]; lower alcohols, dimethylformamide, dimethylsulfoxide, pyridine) of the same compound?
**A.** some degree of solubility in most polar organic solvents

**Q.** What about the solubility in water ([17]; water) of the same compound?
**A.** very soluble in water
